# Reference: US20210138025A1, “CATIONIC PEPTIDES WITH IMMUNOMODULATORY AND/OR ANTI-BIOFILM ACTIVITIES” (priority 2018, published 2021)
# Where two headings read alike, the source gives them in different places. No end group written: not given here.
# Tests used:
# E. coli (Ec) [1] = assay type: cell-based
# S. aureus (Sau) [2] = assay type: cell-based
# E. coli (Ec) [3] = assay type: cell-based; remark: listed apart in the source
# Experimental: (§1) The same strains as in Table 18 were assessed for Minimal Biofilm Inhibitory Concentrations (MBIC) (Table 19). Italics=excellent activity (less than or equal to 4 μg/ml). ND=Not determined. Peptides 3013, 3015 and 3016 inhibited biofilm growth in the largest number of bacterial strains (5, 5 and 6 out of 13 strains, respectively).
# (§2) In addition, several peptides expressed preferential activity vs. biofilms (MBIC) cf. planktonic cells (MIC) (Table 20).
# S. aureus (Sau) [4] = assay type: cell-based; remark: listed apart in the source
# Experimental: as §1, §2
# [5] = tested on: planktonic methicillin resistant S. aureus; assay: microbe, parasite or virus in culture; assay type: cell-based, Staphylococcus aureus
# PBMCs = assay: Cytotoxicity towards PBMCs, lactate dehydrogenase (LDH) release assay (Tables 6, 7); conditions: SPOT synthesized peptide ~25 μM, PBMCs from 3 human donors; Table 6
# S. aureus (MRSA SAP0017) = assay type: cell-based, Staphylococcus aureus; conditions: SPOT synthesized control peptides, determined as in Table 5; Table 7
# Outline: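 Static biofilm assay: 1/100 dilutions of overnight cultures grown with peptide at varying concentrations, added at time zero, in BM2 biofilm medium or tryptic soy broth plus 1% glucose in polypropylene plates. After 22-46 h, adherent biofilm stained with crystal violet and absorbance read at 595 nm.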
# MCP-1 = MCP-1 chemokine induction in human PBMCs, ELISA (Tables 6, 7; FIGS. 6-9, 13); assay type: cell-based; conditions: SPOT synthesized control peptides, determined as in Table 6; Table 7
# Experimental: Venous blood (20 ml) from healthy volunteers was collected in Vacutainer® collection tubes containing sodium heparin as an anticoagulant (Becton Dickinson, Mississauga, ON) in accordance with UBC ethical approval and guidelines. Blood was diluted 1:1 with complete RPMI 1640 medium and separated by centrifugation over a Ficoll-Paque® Plus (Amersham Biosciences, Piscataway, N.J., USA) density gradient. White blood cells were isolated from the buffy coat, washed twice in PBS and then resuspended in RPMI 1640 complete medium (containing 10% fetal bovine serum), and the number of peripheral blood mononuclear cells (PBMC) was determined by Trypan blue exclusion. PBMCs (5×10^5) were seeded into 12-well tissue culture dishes (Falcon; Becton Dickinson) at 0.75-1×10^6 cells/ml at 37° C. in 5% CO2. The above conditions were chosen to mimic conditions for circulating blood monocytes entering tissues at the site of infection via extravasation.
# Following incubation of the cells under various treatment regimens, the tissue culture supernatants were centrifuged at 1000×g for 5 min, then at 10,000×g for 2 min to obtain cell-free samples. Supernatants were aliquoted and then stored at −20° C. prior to assay for various chemokines by capture ELISA (eBioscience and BioSource International Inc., CA, USA respectively)
# IL-1β = assay: Suppression of LPS-induced IL-1β production in human PBMCs, ELISA (Tables 6, 7; FIGS. 6-9, 13); conditions: SPOT synthesized control peptides, determined as in Table 6; Table 7
# [6] = planktonic methicillin resistant
# [7] = planktonic methicillin resistant S. aureus, broth microdilution in Mueller Hinton Broth (MHB), mean of three biological replicates
# [8] = planktonic methicillin resistant S. aureus, broth microdilution in Tryptic Soy Broth (TSB) supplemented with 1% glucose, mean of three biological replicates
Substance,% Toxicity (LDH Release) (PBMCs),% Biofilm Inhibition (S. aureus (MRSA SAP0017)),MCPI production in PBMC (MCP-1),Fold Change in IL1-β relative to untreated LPS-stimulated cells (IL-1β),further results
"WQGWAKIWVVRI-NH2 [Peptide 3019, WQGWAKIWVVRI]",−3.1%,–,–,–,"MIC E. coli (E. coli (Ec) [1]; Ec): 4 µg/mL; MIC S. aureus (S. aureus (Sau) [2]; Sau): 4 µg/mL; MBIC E. coli (E. coli (Ec) [3]; Ec): 2 µg/mL; MBIC S. aureus (S. aureus (Sau) [4]; Sau): 2 µg/mL; MIC (μM) MHB [5, 6]: 8 µM; MIC (μM) TSB with 1% Glucose [5, 6]: 32 µM"
"KKWQLLIKWKLR-NH2 [Peptide 3008, KKWQLLIKWKLR]",18.8%,–,–,–,"MIC E. coli (E. coli (Ec) [1]; Ec): 8 µg/mL; MIC S. aureus (S. aureus (Sau) [2]; Sau): 8 µg/mL; MBIC E. coli (E. coli (Ec) [3]; Ec): 4 µg/mL; MBIC S. aureus (S. aureus (Sau) [4]; Sau): 2 µg/mL; MIC (μM) MHB [5, 6]: 2 µM; MIC (μM) TSB with 1% Glucose [5, 6]: 4 µM"
"VQRIIWLRVKIV-NH2 [Peptide 3023, VQRIIWLRVKIV]",−3%,–,–,–,"MIC E. coli (E. coli (Ec) [1]; Ec): 2 µg/mL; MIC S. aureus (S. aureus (Sau) [2]; Sau): 4 µg/mL; MBIC E. coli (E. coli (Ec) [3]; Ec): 1 µg/mL; MBIC S. aureus (S. aureus (Sau) [4]; Sau): 2 µg/mL; MIC (μM) MHB [5, 6]: 16 µM; MIC (μM) TSB with 1% Glucose [5, 6]: >64 µM"
"RVKAIKWRKIVV-NH2 [Peptide 3012, RVKAIKWRKIVV]",2.8%,–,–,–,"MIC E. coli (E. coli (Ec) [1]; Ec): 64 µg/mL; MIC S. aureus (S. aureus (Sau) [2]; Sau): >64 µg/mL; MBIC E. coli (E. coli (Ec) [3]; Ec): 32 µg/mL; MBIC S. aureus (S. aureus (Sau) [4]; Sau): 8 µg/mL; MIC (μM) MHB [5, 6]: >64 µM; MIC (μM) TSB with 1% Glucose [5, 6]: >64 µM"
"VLKIKVKIWVVK-NH2 [Peptide 3007, VLKIKVKIWVVK]",2%,–,–,–,"MIC E. coli (E. coli (Ec) [1]; planktonic cells, Table 20): 8 µg/mL; MIC S. aureus (S. aureus (Sau) [2]; planktonic cells, Table 20): 16 µg/mL; MBIC E. coli (E. coli (Ec) [3]; biofilms, Table 20): 4 µg/mL; MBIC S. aureus (S. aureus (Sau) [4]; biofilms, Table 20): 2 µg/mL; MIC (μM) MHB [5, 7]: 16 µM; MIC (μM) TSB with 1% Glucose [5, 8]: >64 µM"
"RRQWRGWVRIWL-NH2 [Peptide 3005, RRQWRGWVRIWL]",−4.2%,–,–,–,"MIC E. coli (E. coli (Ec) [1]; Ec): 4 µg/mL; MIC S. aureus (S. aureus (Sau) [2]; Sau): 8 µg/mL; MBIC E. coli (E. coli (Ec) [3]; Ec): 2 µg/mL; MBIC S. aureus (S. aureus (Sau) [4]; Sau): 1 µg/mL; MIC (μM) MHB [5, 6]: 4 µM; MIC (μM) TSB with 1% Glucose [5, 6]: 64 µM"
"VIKWLLKILRAI-NH2 [Peptide 3001, VIKWLLKILRAI]",64.4%,–,–,–,"MIC E. coli (E. coli (Ec) [1]; Ec): 4 µg/mL; MIC S. aureus (S. aureus (Sau) [2]; Sau): 2 µg/mL; MBIC E. coli (E. coli (Ec) [3]; Ec): 2 µg/mL; MBIC S. aureus (S. aureus (Sau) [4]; Sau): <1 µg/mL; MIC (μM) MHB [5, 6]: 1 µM; MIC (μM) TSB with 1% Glucose [5, 6]: 2 µM"
"KIQRRAWKQWRK-NH2 [Peptide 3014, KIQRRAWKQWRK]",−3.7%,–,–,–,"MIC E. coli (E. coli (Ec) [1]; Ec): 64 µg/mL; MIC S. aureus (S. aureus (Sau) [2]; Sau): >64 µg/mL; MBIC E. coli (E. coli (Ec) [3]; Ec): 64 µg/mL; MBIC S. aureus (S. aureus (Sau) [4]; Sau): 64 µg/mL; MIC (μM) MHB [5, 6]: >64 µM; MIC (μM) TSB with 1% Glucose [5, 6]: >64 µM"
"ILVRWIRWRIQW-NH2 [Peptide 3002, ILVRWIRWRIQW]",−3.7%,–,–,–,"MIC E. coli (E. coli (Ec) [1]; Ec): 8 µg/mL; MIC S. aureus (S. aureus (Sau) [2]; Sau): 8 µg/mL; MBIC E. coli (E. coli (Ec) [3]; Ec): 4 µg/mL; MBIC S. aureus (S. aureus (Sau) [4]; Sau): 4 µg/mL; MIC (μM) MHB [5, 6]: 2 µM; MIC (μM) TSB with 1% Glucose [5, 6]: 4 µM"
C32 (QRWKKWKVLKLR) [Peptide C32],–,102%,1614 pg/mL,1.11,–
C57 (KGKIRKIVLIRR) [Peptide C57],–,102%,157 pg/mL,0.9,–
C49 (WLKRIVKVVVLK) [Peptide C49],–,103%,1557 pg/mL,0.8,–
"VLQIKKVLRLLL-NH2 [Peptide 3011, VLQIKKVLRLLL]",15.7%,–,–,–,"MIC E. coli (E. coli (Ec) [1]; planktonic cells, Table 20): 8 µg/mL; MIC S. aureus (S. aureus (Sau) [2]; planktonic cells, Table 20): 64 µg/mL; MBIC E. coli (E. coli (Ec) [3]; biofilms, Table 20): 4 µg/mL; MBIC S. aureus (S. aureus (Sau) [4]; biofilms, Table 20): 2 µg/mL; MIC (μM) MHB [5, 7]: 8 µM; MIC (μM) TSB with 1% Glucose [5, 8]: 16 µM"
C33 (KIWLLKLRQRQK) [Peptide C33],–,102%,1685 pg/mL,1.23,–
C30 (RGARVIRWKLRR) [Peptide C30],–,100%,1153 pg/mL,1.23,–
C12 (VIRAKAVWGWVK) [Peptide C12],–,104%,498 pg/mL,1.01,–
C54 (QVVVKKKAIQVV) [Peptide C54],–,101%,651 pg/mL,0.95,–

Substance,% Toxicity (LDH Release) (PBMCs),% Biofilm Inhibition (S. aureus (MRSA SAP0017)),MCPI production in PBMC (MCP-1),Fold Change in IL1-β relative to untreated LPS-stimulated cells (IL-1β),further results
C36 (KRIKKLLKVVLK) [Peptide C36],–,100%,719 pg/mL,0.92,–
C39 (KIKLIQKQLRIK) [Peptide C39],–,98%,286 pg/mL,0.84,–
C10 (QLRVAWKRAWWA) [Peptide C10],–,87%,1313 pg/mL,1.34,–
C25 (IGQVVLVKIKIA) [Peptide C25],–,98%,1762 pg/mL,1.21,–
C17 (QQLRWKRVAKAI) [Peptide C17],–,100%,1677 pg/mL,1.05,–
C41 (KAVAGARQRWAL) [Peptide C41],–,101%,353 pg/mL,0.82,–
C13 (VARAVQKRWRKK) [Peptide C13],–,105%,221 pg/mL,1.55,–
C23 (LKKIIVQAVGLI) [Peptide C23],–,97%,653 pg/mL,0.95,–
C14 (VKAKRWKWAQLA) [Peptide C14],–,104%,209 pg/mL,1.2,–
C45 (QWLVKWVIIKVV) [Peptide C45],–,102%,499 pg/mL,1,–
C16 (KKIRQWGKAAAW) [Peptide C16],–,100%,571 pg/mL,0.99,–
C27 (KKAIKVVAIGRI) [Peptide C27],–,102%,50 pg/mL,1.06,–
C15 (KRVQAKAWRLQR) [Peptide C15],–,100%,297 pg/mL,0.94,–
C55 (VAKVKKARWRLR) [Peptide C55],–,102%,208 pg/mL,0.92,–
C53 (GKLKIKVKLGIA) [Peptide C53],–,98%,113 pg/mL,0.94,–
C11 (KAVKKGRRAIVV) [Peptide C11],–,106%,197 pg/mL,1.12,–
